From patent publication US20260285857A1, “BICYCLIC AND HETEROCYCLIC AMIDE COMPOUNDS” (priority 2024, published 2026)

What follows are compounds tested on immunoglobulin light chain protein WIL-FL T46L (assay: Differential scanning fluorimetry (thermal shift) assay). Details: Table A; temperature shift [Tm]compound-[Tm]vehicle; recombinant WIL-FL T46L.
Format: binding
`Cc1ncn(CC2C3COC2(c2nc4c(C)cc(N5CC[C@](C)(c6ccccc6)C5)cn4n2)C3)n1` (some centres unmarked) [Compound 83] was tested, and the DSF was “**** (>1.5-2.5° C.=****)”.
In the case of `Cc1cc(N2CC[C@](C)(c3ccccc3)C2)cn2nc(C(=O)N[C@H]3CC[C@H](c4ccc(C(=O)O)c(F)c4)CC3)nc12` [Compound 225], the DSF was “***** (>2.5° C.=*****)”.
`Cc1cc(N2CC[C@](C)(c3ccccc3)C2)cn2nc(C(=O)NC3CCN(c4nccc(C(=O)O)n4)CC3)nc12` [Compound 238] was tested, and the DSF was “***** (>2.5° C.=*****)”.
For `Cc1nc(C2C3(c4nc5c(C)cc(N6CC[C@](C)(c7ccccc7)C6)cn5n4)CC2(C(C)(C)O)CO3)n[nH]1` (mixture of isomers) [Compound 3, 2-[1-[8-methyl-6-[rac-(3R)-3-methyl-3-phenyl-pyrrolidin-1-yl]-[1,2,4]triazolo[1,5-a]pyridin-2-yl]-5-(5-methyl-1H-1,2,4-triazol-3-yl)-2-oxabicyclo[2.1.1]hexan-4-yl]propan-2-ol], the DSF was “***** (>2.5° C.=*****)”.
`Cc1nsc(C2(C)CCN(c3cc(C)c4nc(C(=O)N5C[C@@H]6CN(c7cccc(C(=O)O)n7)C[C@@H]6C5)nn4c3)C2)n1` (some centres unmarked) [Compound 299] was tested, and the DSF was “*** (>1-1.5° C.=***)”.
`Cc1cc(N2CC[C@](C)(c3ccccc3)C2)cn2nc(C(=O)NC3CCOC3)nc12` (some centres unmarked) [Compound 118] was tested, and the DSF was “***** (>2.5° C.=*****)”.
In the case of `Cc1cc(OC[C@H](C)c2ccccc2)cn2nc(C34CC(CO3)C4N)nc12` (some centres unmarked) [Compound 98], the DSF was “*** (>1-1.5° C.=***)”.
With `Cc1cc(OC[C@H](C)c2ccccc2)cn2nc(C(=O)N[C@@H]3CC[C@H]3O)nc12` [Compound 319] the DSF was “***** (>2.5° C.=*****)”.
`Cc1cc(OC[C@H](C)c2ccccc2)cn2nc(C(=O)N3CCC(Cc4ccc(C(=O)O)nc4)CC3)nc12` [Compound 304] was tested, and the DSF was “***** (>2.5° C.=*****)”.
`Cc1cc(N2CC[C@](C)(c3ccccc3)C2)cn2nc(C(=O)NC3CCNC3)nc12` (some centres unmarked) [Compound 101] was tested, and the DSF was “***** (>2.5° C.=*****)”.
In the case of `Cc1cc(N2CC[C@](C)(c3ccccc3)C2)cn2nc(C(=O)NC3CNCC3O)nc12` (some centres unmarked) [Compound 117], the DSF was “***** (>2.5° C.=*****)”.
For `COC(=O)C1C2CN(C3CCC34CC(NC(=O)c3nc5c(C)cc(N6CC[C@](C)(c7ccccc7)C6)cn5n3)C4)CC21` (some centres unmarked) [Compound 372], the DSF was “***** (>2.5° C.=*****)”.
In the case of `Cc1cc(N2CC[C@](C)(c3ccccc3)C2)cn2nc(C(=O)N3CC4CN(c5cccc(C(=O)O)n5)CC4(O)C3)nc12` (some centres unmarked) [Compound 246], the DSF was “***** (>2.5° C.=*****)”.
In the case of `Cc1cc(N2CC[C@](C)(c3ccccc3)C2)cn2nc(C(=O)NC3CC4(C3)CC(N3CC5C(C3)C5C(N)=O)C4)nc12` (some centres unmarked) [Compound 367], the DSF was “***** (>2.5° C.=*****)”.
For `CNC(=O)c1nc2c(C)cc(N3CCC(C)(c4ccccc4F)C3)cn2n1` (centres unmarked) [Compound 425], the DSF was “***** (>2.5° C.=*****)”.
With `Cc1cc(N2CC[C@](C)(c3ccccc3)C2)cn2nc(C(=O)N3CCCN(c4cccc(C(=O)O)n4)CCC3)nc12` [Compound 288] the DSF was “***** (>2.5° C.=*****)”.
In the case of `Cc1cc(N2CC[C@](C)(c3ccccc3)C2)cn2nc(C34CC(CO3)C4c3noc(=O)[nH]3)nc12` (stereo partly drawn) [Compound 13, 3-[1-[8-methyl-6-[(3R)-3-methyl-3-phenyl-pyrrolidin-1-yl]-[1,2,4]triazolo[1,5-a]pyridin-2-yl]-2-oxabicyclo[2.1.1]hexan-5-yl]-4H-1,2,4-oxadiazol-5-one], the DSF was “***** (>2.5° C.=*****)”.
For `Cc1cc(N2CC[C@](C)(c3ccccc3)C2)cn2nc(C(=O)N3CC[C@@](C)(O)C3)nc12` [Compound 159], the DSF was “***** (>2.5° C.=*****)”.
In the case of `Cc1ncn(C2(C)CCN(c3cc(C)c4nc(C(=O)N5C[C@@H]6CN(c7cccc(C(=O)O)n7)C[C@@H]6C5)nn4c3)C2=O)n1` (stereo partly drawn) [Compound 25, 6-((3aR,6aS)-5-(8-methyl-6-(3-methyl-3-(3-methyl-1H-1,2,4-triazol-1-yl)-2-oxopyrrolidin-1-yl)-[1,2,4]triazolo[1,5-a]pyridine-2-carbonyl)hexahydropyrrolo[3,4-c]pyrrol-2(1H)-yl)picolinic acid], the DSF was “* (0-0.5° C.=*)”.
`Cc1cc(N2CCC(C)(c3ccc(O)cc3)C2)cn2nc(C(=O)N3CC[C@@]4(CCN(c5cccc(C(=O)O)n5)C4)C3)nc12` (some centres unmarked) [Compound 413] was tested, and the DSF was “**** (>1.5-2.5° C.=****)”.
`Cc1cc(N2CC[C@](C)(c3ccccc3)C2)cn2nc(C(=O)NC3(CO)CCOCC3)nc12` [Compound 131] was tested, and the DSF was “***** (>2.5° C.=*****)”.
With `Cc1cc(N2CC[C@](C)(c3ccccc3)C2)cn2nc(C(=O)NC3CCN(c4ccc(C(=O)O)nc4)C3)nc12` (some centres unmarked) [Compound 271] the DSF was “***** (>2.5° C.=*****)”.
For `Cc1cc(N2CC[C@](C)(c3ccccc3)C2)cn2nc(C34CC(N(C)C)(CO3)C4CO)nc12` (some centres unmarked) [Compound 50], the DSF was “***** (>2.5° C.=*****)”.
With `CNC(=O)c1cc2c(C)cc(N3CC[C@](C)(c4ccccc4)C3)cn2n1` [Compound 433] the DSF was “***** (>2.5° C.=*****)”.

Same assay, conditions: Table B; temperature shift [Tm]compound-[Tm]vehicle; recombinant WIL-FL T46L
With `Cc1cc(N2CC[C@](C)(c3ccccc3)C2)cn2nc(C34CC(Nc5cccc(C(=O)O)n5)(CO3)C4)nc12` [Compound 465, (R)-6-((1-(8-methyl-6-(3-methyl-3-phenylpyrrolidin-1-yl)-[1,2,4]triazolo[1,5-a]pyridin-2-yl)-2-oxabicyclo[2.1.1]hexan-4-yl)amino)picolinic acid] the DSF was “***** (>2.5° C.=*****)”.
With `Cc1cc(N2CC[C@](C)(c3ccccc3)C2)cn2nc(C3OC4(C)CC3(C(N)=O)C4)nc12` (some centres unmarked) [Compound 476] the DSF was “***** (>2.5° C.=*****)”.
For `Cc1cc(N2CC[C@](C)(c3ccccc3)C2)cn2nc(C34CC(CO3)C4N3CC4(CN(c5cccc(C(=O)O)n5)C4)NC3=O)nc12` (some centres unmarked) [Compound 516], the DSF was “***** (>2.5° C.=*****)”.
In the case of `Cc1cc(N2CC[C@](C)(c3cccc(F)c3)C2)cn2nc(C(=O)NC3CCN(c4cccc(C(=O)O)n4)CC34COC4)nc12` (some centres unmarked) [Compound 700], the DSF was “***** (>2.5° C.=*****)”.
In the case of `Cc1cc(N2CC3(CC[C@H]3c3cccc(F)c3)C2)cn2nc(C(=O)N3CC[C@@]4(CCN(c5cccc(C(=O)O)n5)C4)C3)nc12` [Compound 736, 6-[(5R)-2-[6-[(7S)-7-(3-fluorophenyl)-2-azaspiro[3.3]heptan-2-yl]-8-methyl-[1,2,4]triazolo[1,5-a]pyridine-2-carbonyl]-2,7-diazaspiro[4.4]nonan-7-yl]pyridine-2-carboxylic acid], the DSF was “***** (>2.5° C.=*****)”.
In the case of `Cc1cc(N2CC[C@](C)(c3ccccc3)C2)cn2nc(C(=O)N3CC(C(=O)O)C4(COC4)C3)nc12` (some centres unmarked) [Compound 603], the DSF was “***** (>2.5° C.=*****)”.
In the case of `Cc1cc(N2CC[C@](C)(c3ccccc3)C2)cn2nc(C(=O)N3CC[C@@]4(CCN(C(=O)CC(C)(C)O)C4)C3)nc12` [Compound 721], the DSF was “***** (>2.5° C.=*****)”.
`Cc1cc(N2CCC(C)(n3ccc(C(F)F)n3)C2)cn2nc(C(=O)N3CC[C@@]4(CCN(c5cccc(C(=O)O)n5)C4)C3)nc12` (stereo partly drawn) [Compound 735, 6-[(5R)-2-[6-[3-[3-(difluoromethyl)pyrazol-1-yl]-3-methyl-pyrrolidin-1-yl]-8-methyl-[1,2,4]triazolo[1,5-a]pyridine-2-carbonyl]-2,7-diazaspiro[4.4]nonan-7-yl]pyridine-2-carboxylic acid] was tested, and the DSF was “**** (>1.5-2.5° C.=****)”.
In the case of `Cc1cc(N2CC[C@](C)(c3ccccc3)C2)cn2nc(C(=O)N3CC4CCC3C(=O)N4c3cccc(C(=O)O)n3)nc12` (stereo partly drawn) [Compound 695, 6-[5-[8-methyl-6-[(3R)-3-methyl-3-phenyl-pyrrolidin-1-yl]-[1,2,4]triazolo[1,5-a]pyridine-2-carbonyl]-3-oxo-2,5-diazabicyclo[2.2.2]octan-2-yl]pyridine-2-carboxylic acid], the DSF was “***** (>2.5° C.=*****)”.
With `Cc1cc(N2CC[C@](C)(c3ccccc3)C2)cn2nc(C34CC(CO3)C4c3nc(NC(=O)c4cccc(C(=O)O)n4)n[nH]3)nc12` (some centres unmarked) [Compound 549] the DSF was “***** (>2.5° C.=*****)”.
`Cc1cc(N2CC3(CCC3c3cccc(F)c3)C2)cn2nc(C(=O)N3CC[C@@]4(CCN(c5cccc(C(=O)O)n5)C4)C3)nc12` (some centres unmarked) [Compound 738] was tested, and the DSF was “***** (>2.5° C.=*****)”.
In the case of `Cc1cc(N2CC[C@@](C)(n3ccc(C(F)(F)F)n3)C2)cn2nc(C(=O)NC3COC4(COC4)C3)nc12` (some centres unmarked) [Compound 593], the DSF was “***** (>2.5° C.=*****)”.
`Cc1cc(N2CC[C@](C)(c3ccccc3)C2)cn2nc(C(=O)N3CCC4(CCC(N5CC(C(=O)O)C5)C4)C3)nc12` (some centres unmarked) [Compound 722] was tested, and the DSF was “***** (>2.5° C.=*****)”.
`Cc1cc(N2CC[C@](C)(c3ccccc3)C2)cn2nc(C34CC(Cn5ncnc5C)(CO3)C4)nc12` [Compound 449] was tested, and the DSF was “***** (>2.5° C.=*****)”.
`Cc1cc(N2CC[C@](C)(c3ccccc3)C2)cn2nc(C(=O)NC3CC4(C3)CN(C(=O)CC(C)(C)C(=O)O)C4)nc12` [Compound 601] was tested, and the DSF was “***** (>2.5° C.=*****)”.
`CCC1(c2ccccc2)CN(c2cc(C)c3nc(C(=O)N4C[C@@H]5CN(c6cccc(C(=O)O)n6)C[C@@H]5C4)nn3c2)C1` [Compound 631] was tested, and the DSF was “***** (>2.5° C.=*****)”.
For `Cc1cc(N2CC[C@](C)(c3ccccc3)C2)cn2nc(C34CC(C#N)(CO3)C4)nc12` [Compound 464, (R)-1-(8-methyl-6-(3-methyl-3-phenylpyrrolidin-1-yl)-[1,2,4]triazolo[1,5-a]pyridin-2-yl)-2-oxabicyclo[2.1.1]hexane-4-carbonitrile], the DSF was “***** (>2.5° C.=*****)”.
In the case of `Cc1cc(N2CC[C@](C)(c3ccccc3)C2)cn2nc(C(=O)N3CCC4(CCN(c5nc(C(=O)O)ccc5C#N)C4)C3)nc12` (some centres unmarked) [Compound 724], the DSF was “***** (>2.5° C.=*****)”.
In the case of `CCC1(c2ccccc2)CN(c2cc(C)c3nc(C45CC(CO)(CO4)C5c4nc(C)n[nH]4)nn3c2)C1` (centres unmarked) [Compound 579], the DSF was “**** (>1.5-2.5° C.=****)”.
`Cc1cc(N2CC[C@](C)(c3ccccc3)C2)cn2nc(C(=O)N3CCCN(c4ccc(C(=O)O)cn4)CC3)nc12` [Compound 694] was tested, and the DSF was “***** (>2.5° C.=*****)”.
`Cc1cc(N2CC[C@](C)(c3ccccc3F)C2)cn2nc(C(=O)N3CC[C@@]4(CCN(c5cccc(C(=O)O)n5)C4)C3)nc12` [Compound 749] was tested, and the DSF was “***** (>2.5° C.=*****)”.
In the case of `Cc1cc(N2CC[C@](C)(c3ccccc3)C2)cn2nc(C(=O)N3CC[C@@]4(CCN(C(=O)C56CCC(C(=O)O)(CC5)OC6)C4)C3)nc12` [Compound 732], the DSF was “***** (>2.5° C.=*****)”.
`Cc1cc(N2CC[C@](C)(c3ccccc3)C2)cn2nc(C34CC(CO3)C4COc3ccc(=O)[nH]c3)nc12` (some centres unmarked) [Compound 500] was tested, and the DSF was “***** (>2.5° C.=*****)”.
